Results taken from patent US20250346871A1, “PRENYLTRANSFERASES AND METHODS OF MAKING AND USE THEREOF” (priority 2020, published 2025).

Legend:
[1] = system: APT73 (SEQ ID NO: 4) variant APT73.30 (S205R, S223A, K225H, A260G, Y276L, G282R, A283C, S284L; residues 285 onward removed from the C-terminus), SEQ ID NO: 56; experiment: Kinetic characterization of purified enzyme with OA and GPP as substrates; format: biochemical; conditions: APT73.30, purified enzyme
Experimental: (§1) In order to compare the enzyme's activities more accurately, larger cultures of the best hits and controls from the first screen were grown and the enzymes were purified according to the following protocol. Glycerol stocks of each recombinant strain were used to inoculate 2 mL of LB with 50 μg/mL kanamycin. […]. The cultures were grown at 37° C. with 250 rpm shaking until an OD600 of approximately 0.8-1. At this point, the cultures were transferred to a shaker at room temperature for 30 min, after which they were induced with 0.25 mM IPTG. After 16 h at 150 rpm shaking, the cells were pelleted by centrifugation
(§2) Cell pellets were resuspended in 10 mL lysis buffer (B-PER with 5 mM MgCl2, 100 μg/mL lysozyme, and 2 μL/mL DNaseI (TURBO DNase ThermoFisher)). After incubation at room temperature for 10 min, the cell debris were removed by centrifugation at 4750 rpm for 10 min at 4° C. Lysates were loaded in pre-equilibrated cobalt spin columns (ThermoFisher, HisPur Cobalt spin column, 1 mL) and tagged proteins were purified according to manufacturer's protocol. The eluted proteins were exchanged into the final buffer (TrisHCl 25 mM, 5 mM MgCl2, 150 mM NaCl 10% v/v glycerol) using Amicon Ultra 15 centrifugal filters (10 kDa MWCO). Proteins can be stored at −20° C. for at least a week.
(§3) Selected mutants from the previous screenings were cloned in E. coli vectors and were purified as described in Example 3.

[2] = system: APT73 (SEQ ID NO: 4) variant APT73.52 (S205R, S223A, K225H, A260G, Y276E, G282R, A283C, S284L; residues 285 onward removed from the C-terminus), SEQ ID NO: 69; experiment: as above; format: biochemical; conditions: APT73.52, purified enzyme
Experimental: as §1, §2, §3

[3] = system: APT73 (SEQ ID NO: 4) variant APT73.13 (S205R, G282R, A283C, S284L; residues 285 onward removed from the C-terminus), SEQ ID NO: 36; experiment: as above; format: biochemical; conditions: APT73.13, purified enzyme
Experimental: as §1, §2, §3

[4] = system: APT89, aromatic prenyltransferase, wild type, SEQ ID NO: 2 (expressed with His tag: SEQ ID NO: 9, 81); experiment: as above; format: biochemical
Experimental: as §1, §2, §3

[5] = system: APT73 (SEQ ID NO: 4) variant APT73.47 (A156I, S205R, S223A, K225H, A260G, Y276L, G282R, A283C, S284L; residues 285 onward removed from the C-terminus), SEQ ID …; experiment: as above; format: biochemical; conditions: APT73.47, purified enzyme
Experimental: as §1, §2, §3

[6] = system: NphB, aromatic prenyltransferase from Streptomyces sp. (strain CL190), wild type, Uniprot ID: Q4R2T2, SEQ ID NO: 20; conditions: OA and GPP as substrates, from literature (Valliere et al. Nature Commun. 2019, 10, 565); cited from earlier work

SMILES | Kcat (CBGA) [1] [s⁻¹] | Kcat (CBGA) [2] [s⁻¹] | Kcat (CBGA) [3] [s⁻¹] | Kcat (CBGA) [4] [s⁻¹] | Kcat (CBGA) [5] [s⁻¹] | Km [6] [µM] | Km [1] [µM] | Km [2] [µM] | Km [3] [µM] | Km [4] [µM] | Km [5] [µM]
CCCCCc1cc(O)c(C/C=C(\C)CCC=C(C)C)c(O)c1C(=O)O [CBGA, cannabigerolic acid] | 0.113 | 0.08 | 0.049 | 0.001 | 0.175 |  |  |  |  |  | 
CCCCCc1cc(O)cc(O)c1C(=O)O [OA, olivetolic acid] |  |  |  |  |  | 640 | 501 ± 88 | 101 ± 14 | 1100 ± 93 | 33 ± 4 | 205 ± 165
